# Source: patent US9364414B2, “Method to protect skin from ultraviolet radiation using novel peptides involved in the improvement of microparasol organization in keratinocytes” (ISP Investments Inc., priority 2011, dated 2016)
# Ends that are not written are not given here.
# Legend:
# [1] = test system: dynactin subunit p150Glued; assay: Expression of p150Glued in ex-vivo human skin biopsies (immunostaining); format: cell-based; details: 100 ppm stock diluted at 1%, twice a day, 48 hours
# Experimental: Samples of ex-vivo human skin biopsies from a person, were cultured at the air/liquid interface. The samples were treated twice a day with a stock solution of peptide SEQ ID NO: 7 at 100 ppm, diluted at the 1%, for 48 hours.
# Immunostaining was then performed by means of an antibody directed to p150Glued subunit (REF.Santacruz sc-9804), followed by a secondary antibody, coupled with a green fluorescent marker (REF Invitrogen, A11055). The skin sections were then examined using Nikon® Eclipse 80i microscope.
# Quantification was carried out with VOLOCITY® image analysis software.
# [2] = test system: keratinocytes containing melanosomes (NHK/NHEM co-culture); assay: Frequency of keratinocytes containing melanosomes in NHK/NHEM co-culture after p150Glued siRNA; format: cell-based, human; details: after 10 nM p150Glued siRNA, 48 hours
# Experimental: Normal human primary keratinocytes (NHK) and normal human epidermal melanocytes (NHEM) were co-cultured (ratio: 1 melanocyte/4 keratinocytes) in Keratinocyte Serum Free Medium (KSFM, GIBCO) supplemented with 50 μg/ml bovine pituitary extract, 5 ng/ml human recombinant EGF (GIBCO) and 100 μg/ml Primocin™ (INVIVOGEN). Cells were maintained at 37° C. in a humidified atmosphere containing 5% CO2.
# NHK and NHEM cells co-seeded for 48 hours were treated, or not, in duplicate, once with 10 nM of p150Glued-specific siRNA.
# Cells were then treated, or not, in duplicate, twice a day for 48 hours with a solution of peptide compound SEQ ID NO: 7 at 100 ppm, diluted at 0.5% or 1% before use, without medium change.
# Cells were rinsed with PBS and fixed with cold methanol for 4 minutes. Cellular membranes were permeabilized using 0.1% X-100 Triton (Fisher Scientific) for 10 minutes. Unspecific binding sites were blocked, then cells were incubated with the primary antibodies directed to melanosomes (mouse monoclonal anti-“pmel17” Abcam, ab34165 and rabbit monoclonal anti “keratin-14” Abcam, ab51054) diluted in PBS, for 1 hour and a half, under agitation, at room temperature, in a damp room. […]
# Three images per condition were analyzed. […] The frequency of keratinocyte containing melanosomes was evaluated and expressed in percentage. […]
# [3] = test system: supranuclear organization of melanosomes in ex-vivo skin; assay: Microparasol supranuclear organization in ex-vivo skin (light and electron microscopy); format: cell-based, human; details: 0.5% (light microscopy) or 1% (electron microscopy), 48 hours
# Experimental: 6 mm diameter punch biopsies were obtained from a person (light microscopy) and a person (electron microscopy) […]. They were cultivated on culture medium containing 50% of DMEM 1 g/L glucose (Lonza) and 50% of Ham's-F12 (Lonza) supplemented with 10% of FBS (Lonza), 2 mM of L-glutamine (Lonza) and 100 μg/ml of PRIMOCIN™ (InvivoGen). Skin biopsies were maintained at 37° C. in a humidified atmosphere containing 5% of CO2.
# The stock solution of peptide compound SEQ ID NO: 7 was diluted at 0.5% or 1% before use. The biopsies were treated, or not, in duplicate, twice a day with 0.5% (light microscopy) or 1% (electron microscopy) of peptide compound SEQ ID NO: 7 for 48 hours.
# After skin culture, tissues were fixed for 4 hours in buffered 10% formalin. Samples were transferred to baths with ethanol progressively concentrated to remove water, then followed by two baths of xylene to remove the alcohol, and finally embedded in molten paraffin wax. Embedded skin biopsies were then cut with a microtome (Shandon) into 4 μm thick sections and placed on SUPERFROST PLUS™ slides (Thermo Scientific).
# Sections were deparaffinized and rehydrated with several successive xylene, alcohol and water baths. Then, 100 μl of Stock solution were added on each section and slides were incubated 10 minutes at 60° C. […]
# [4] = test system: normal human keratinocytes (NHK); assay: Comet assay on NHK cells irradiated with UVB; format: cell-based
# Experimental: (§1) NHK and NHEM were placed in culture for 24 hours in the presence of a solution of peptide compound SEQ ID NO: 7 at 50 ppm diluted at 1% before use, then irradiated with UVB radiation in an amount of 30 mJ/cm^2 for NHEM and 60 mJ/cm^2 for NHK. A control condition was also used without a peptide active agent. The cells were then detached from their support by trypsin, then centrifuged at 900 rpm for 5 minutes in order to concentrate them and count them.
# (§2) A defined number of cells (25,000 cells) was then embedded in a Low Melting agarose gel at 0.75%, then deposited on a glass slide previously coated with 1% agarose. The slides were then immersed in a lysis solution for 1 hour 30 minutes at 4° C., then in an alkaline solution for 20 minutes at 4° C. The cells were thus lysed and the DNA was denatured. The slides were immersed in an electrophoresis solution before an electric field (20 V-250 mA) is applied. The DNA thus denatured was subjected to migration in the agarose gel at 4° C. The application of a fluorescent DNA dye on the slides (propidium iodide at 2 μg/ml) makes it possible to observe, under the microscope, DNA appearing in the form of comets if it has been damaged.
# (§3) Finally, quantification software makes it possible to determine the Tail Moment, means applied to each condition tested. […]
# [5] = test system: normal human epidermal melanocytes (NHEM); assay: Comet assay on NHEM cells irradiated with UVB; format: cell-based; details: peptide 1% (0.5 ppm) 24 hours pretreatment + UVB 30 mJ/cm^2
# Experimental: as §1, §2, §3
# [6] = test system: cyclobutane pyrimidine dimers (CPDs) in NHEM; assay: Amount of cyclobutane pyrimidine dimers (CPDs) in melanocytes after UVB (immunostaining); format: cell-based, human; details: UVB 75 mJ/cm^2
# Experimental: DNA damages induced by UVB radiation can be monitored by quantifying the amount of cyclobutane pyrimidine dimers (CPDs), which are formed after conformational changes in the DNA structure. […] The quantification of CPDs was carried out by immunohistochemical assay.
# NHEM (normal human epidermis melanocytes) were grown in Melanocyte Growth Medium (PromoCell) supplemented with 1 ng/ml human basic fibroblast growth factor, 52 μg/ml medium bovine pituitary extract, 0.5 μg/ml hydrocortisone, 5 μg/ml human recombinant insulin, 10 ng/ml phorbol 12-myristate 13-acetate (PMA) and 100 μg/ml of PRIMOCIN (In vivoGen). When the cells were sub-cultured for the experiment, the same medium depleted in PMA was used. Cells were maintained at 37° C. in a humidified atmosphere containing 5% of CO2.
# Cells were treated, or not, in duplicate, twice a day for 48 hours with a solution of peptide compound SEQ ID NO: 7 at 100 ppm, diluted at 0.5% or 1% before use. Then, they were irradiated, or not, with a 75 mJ/cm^2 UVB dose using a specific oven to ensure the homogeneity of the treatment. […]
# Three images per condition were analyzed. Each picture was converted in grey levels and analyzed with Image-Pro Analyzer 6.3 software (MediaCybernetics, Inc.) which generated a histogram representing the number of pixels per intensity. The sum of all intensities was calculated. […]
substance,measurement,setting,value
Asp-Leu-Lys-Lys-NH2 (DLKK-NH2) [SEQ ID NO: 7],increase of the dynactin subunit p150Glued staining,[1],80%
same,frequency of keratinocyte containing melanosomes compared to the control,[2]; peptide 0.5% (0.5 ppm),partially restored
same,frequency of keratinocyte containing melanosomes compared to the control,[2]; peptide 1% (1 ppm),fully restored
same,supranuclear organization of melanosomes above the nucleus,[3],better supranuclear organization of melanosomes
same,reduction in Tail Moment versus UVB condition,[4]; peptide 1% (0.5 ppm) 24 hours pretreatment + UVB 60 mJ/cm^2,70%
same,Tail Moment,"[4]; peptide 1% (0.5 ppm) 24 hours pretreatment + UVB 60 mJ/cm^2, UVB alone 170.27, control 1.66",51.36
same,reduction in Tail Moment versus UVB condition,[5],55%
same,change of CPDs after UVB compared to the non treated condition,[6]; pretreated 48 hours with 0.5% (0.5 ppm),−39%
same,change of CPDs after UVB compared to the non treated condition,[6]; pretreated 48 hours with 1% (1 ppm),−59%
